# Experimental data reported in US20220324815A1, “2-PHENOXY-PYRIMIDINE DERIVATIVES AS HERBICIDAL COMPOUNDS” (SYNGENTA CROP PROTECTION AG, priority 2019, published 2022).
# Tests used:
# Format in all cases: in vivo
# Settings in all cases: 250 g/ha unless otherwise stated, evaluated after 13 days, five-point scale
# [1] = test system: Amaranthus retoflexus (AMARE); assay: Test 1 glasshouse herbicide test, post-emergence application (Table B1)
# How it was run: (§1)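 Pots sown in standard soil; sprayed 1 day (pre-emergence) or 8 days (post-emergence) after sowing at 250 g/ha unless stated, in acetone/water (50:50) with 0.5% Tween 20. Glasshouse 24/16 °C, 14 h light, 65% humidity; damage scored at 13 days on a 1–5 scale (5=81–100%, 1=0–20%).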
# [2] = test system: Echinochloa crus-galli (ECHCG); assay: as above
# How it was run: as §1
# [3] = test system: Ipomoea hederacea (IPOHE); assay: as above
# How it was run: as §1
# Lolium perenne (LOLPE) = assay: as above
# How it was run: as §1
# Setaria faberi (SETFA) [4] = assay: as above
# How it was run: as §1
# Solanum nigrum (SOLNI) = assay: as above
# How it was run: as §1
# [5] = test system: Amaranthus retoflexus (AMARE); assay: Test 1 glasshouse herbicide test, pre-emergence application (Table B2)
# How it was run: as §1
# [6] = test system: Echinochloa crus-galli (ECHCG); assay: as above
# How it was run: as §1
# [7] = test system: Ipomoea hederacea (IPOHE); assay: as above
# How it was run: as §1
# Setaria faberi (SETFA) [8] = assay: as above
# How it was run: as §1
Compound,"% phytotoxicity AMARE, post-emergence application [1]","% phytotoxicity ECHCG, post-emergence application [2]","% phytotoxicity IPOHE, post-emergence application [3]","% phytotoxicity LOLPE, post-emergence application (Lolium perenne (LOLPE))","% phytotoxicity SETFA, post-emergence application (Setaria faberi (SETFA) [4])","% phytotoxicity SOLNI, post-emergence application (Solanum nigrum (SOLNI))","% phytotoxicity AMARE, pre-emergence application [5]","% phytotoxicity ECHCG, pre-emergence application [6]","% phytotoxicity IPOHE, pre-emergence application [7]","% phytotoxicity SETFA, pre-emergence application (Setaria faberi (SETFA) [8])"
FC(F)(F)CCSc1ccccc1Oc1ncc(Cl)cn1 [Al],5 (5=81 to 100%),4 (4=61 to 80%),4 (4=61 to 80%),4 (4=61 to 80%),4 (4=61 to 80%),4 (4=61 to 80%),–,–,–,–
O=S(=O)(CCCC(F)F)c1c(Cl)cccc1Oc1ncc(Cl)cn1 [Compound A103],4 (4=61 to 80%),1 (1=0 to 20%),2 (2=21 to 40%),–,1 (1=0 to 20%),–,4 (4=61 to 80%),2 (2=21 to 40%),4 (4=61 to 80%),2 (2=21 to 40%)
[O-][S+](CCCC(F)F)c1c(Cl)cccc1Oc1ncc(Cl)cn1 (centres unmarked) [Compound A104],5 (5=81 to 100%),5 (5=81 to 100%),5 (5=81 to 100%),–,5 (5=81 to 100%),–,5 (5=81 to 100%),5 (5=81 to 100%),5 (5=81 to 100%),5 (5=81 to 100%)
"FC(F)CCCSc1c(Cl)cccc1Oc1ncc(Cl)cn1 [Compound A105, 5-chloro-2-[3-chloro-2-(4,4-difluorobutylsulfanyl)phenoxy]pyrimidine]",5 (5=81 to 100%),5 (5=81 to 100%),4 (4=61 to 80%),–,5 (5=81 to 100%),–,5 (5=81 to 100%),5 (5=81 to 100%),4 (4=61 to 80%),5 (5=81 to 100%)
N#Cc1cccc(Oc2ncc(Cl)cn2)c1SCCOC(F)(F)F [Compound A106],5 (5=81 to 100%),5 (5=81 to 100%),3 (3=41 to 60%),–,4 (4=61 to 80%),–,5 (5=81 to 100%),5 (5=81 to 100%),2 (2=21 to 40%),5 (5=81 to 100%)
N#Cc1cccc(Oc2ncc(Cl)cn2)c1SCCOCC(F)(F)F [Compound A107],5 (5=81 to 100%),5 (5=81 to 100%),2 (2=21 to 40%),–,4 (4=61 to 80%),–,5 (5=81 to 100%),5 (5=81 to 100%),3 (3=41 to 60%),5 (5=81 to 100%)
N#Cc1cccc(Oc2ncc(Cl)cn2)c1S(=O)(=O)CCOCC(F)(F)F [Compound A108],4 (4=61 to 80%),1 (1=0 to 20%),2 (2=21 to 40%),–,1 (1=0 to 20%),–,5 (5=81 to 100%),1 (1=0 to 20%),1 (1=0 to 20%),1 (1=0 to 20%)
COc1cnc(Oc2cccc(C#N)c2S(=O)(=O)CCCC(F)(F)F)nc1 [Compound A112],2 (2=21 to 40%),1 (1=0 to 20%),2 (2=21 to 40%),–,1 (1=0 to 20%),–,3 (3=41 to 60%),1 (1=0 to 20%),3 (3=41 to 60%),1 (1=0 to 20%)
COc1cnc(Oc2cccc(C#N)c2SCCCC(F)(F)F)nc1 [Compound A113],5 (5=81 to 100%),3 (3=41 to 60%),3 (3=41 to 60%),–,2 (2=21 to 40%),–,5 (5=81 to 100%),4 (4=61 to 80%),3 (3=41 to 60%),2 (2=21 to 40%)
Cc1cnc(Oc2cccc(C#N)c2SCCCC(F)(F)F)nc1 [Compound A114],3 (3=41 to 60%),4 (4=61 to 80%),4 (4=61 to 80%),–,3 (3=41 to 60%),–,5 (5=81 to 100%),4 (4=61 to 80%),4 (4=61 to 80%),4 (4=61 to 80%)
Cc1cnc(Oc2cccc(C#N)c2S(=O)(=O)CCCC(F)(F)F)nc1 [Compound A115],4 (4=61 to 80%),4 (4=61 to 80%),4 (4=61 to 80%),–,3 (3=41 to 60%),–,5 (5=81 to 100%),4 (4=61 to 80%),5 (5=81 to 100%),3 (3=41 to 60%)
"N#Cc1cccc(Oc2ncc(Cl)cn2)c1SCCCOC(F)(F)F [Compound A116, 3-(5-chloropyrimidin-2-yl)oxy-2-[3-(trifluoromethoxy)propylsulfanyl]benzonitrile]",5 (5=81 to 100%),4 (4=61 to 80%),4 (4=61 to 80%),–,4 (4=61 to 80%),–,5 (5=81 to 100%),5 (5=81 to 100%),5 (5=81 to 100%),5 (5=81 to 100%)
N#Cc1cccc(Oc2ncc(Cl)cn2)c1S(=O)(=O)CCCOC(F)(F)F [Compound A117],5 (5=81 to 100%),4 (4=61 to 80%),3 (3=41 to 60%),–,4 (4=61 to 80%),–,5 (5=81 to 100%),4 (4=61 to 80%),5 (5=81 to 100%),5 (5=81 to 100%)
N#Cc1cccc(Oc2ncc(Br)cn2)c1S(=O)(=O)CCCC(F)(F)F [Compound A118],5 (5=81 to 100%),4 (4=61 to 80%),4 (4=61 to 80%),–,4 (4=61 to 80%),–,5 (5=81 to 100%),5 (5=81 to 100%),5 (5=81 to 100%),5 (5=81 to 100%)
N#Cc1cccc(Oc2ncc(Br)cn2)c1SCCCC(F)(F)F [Compound A119],5 (5=81 to 100%),4 (4=61 to 80%),4 (4=61 to 80%),–,4 (4=61 to 80%),–,5 (5=81 to 100%),5 (5=81 to 100%),5 (5=81 to 100%),5 (5=81 to 100%)
N#Cc1cccc(Oc2ncc(Br)cn2)c1S(=O)(=O)CCCCC(F)(F)F [Compound A120],4 (4=61 to 80%),3 (3=41 to 60%),4 (4=61 to 80%),–,3 (3=41 to 60%),–,4 (4=61 to 80%),3 (3=41 to 60%),5 (5=81 to 100%),4 (4=61 to 80%)
N#Cc1cccc(Oc2ncc(Br)cn2)c1SCCCCC(F)(F)F [Compound A121],5 (5=81 to 100%),3 (3=41 to 60%),3 (3=41 to 60%),–,4 (4=61 to 80%),–,5 (5=81 to 100%),3 (3=41 to 60%),2 (2=21 to 40%),5 (5=81 to 100%)
